Measurements: the supplement of paper PMC10307832

Assays:
Test in all cases: relative viability (nuclei count vs DMSO), 5 days (fraction); higher = more cells survive
GW-2580 + Palbociclib = compound: COC1=CC=C(C=C1)COC2=C(C=C(C=C2)CC3=CN=C(N=C3N)N)OC [GW-2580] + CC(=O)c1c(C)c2cnc(Nc3ccc(N4CCNCC4)cn3)nc2n(C2CCCC2)c1=O [Palbociclib] (partner 0.5 µM)
Summary of the method: (§1)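 Lung cancer cell lines in 1536-well plates were dosed by pin tool the day after seeding, either with one drug alone or with a fixed anchor-drug dose plus five library-drug doses (not always all listed) in √10 steps. After 5 days, cells were fixed and their nuclei stained in one step (final 0.05% Triton X-100, 1% formaldehyde, 1 ug/ml Hoechst), then counted on 4× images. Relative viability is the nuclei count in treated wells divided by that in vehicle wells. Values are medians of duplicate plates.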

Fedratinib + Linsitinib = compound: Cc1cnc(Nc2ccc(OCCN3CCCC3)cc2)nc1Nc1cccc(S(=O)(=O)NC(C)(C)C)c1 [Fedratinib] + C[C@]1(O)C[C@@H](c2nc(-c3ccc4ccc(-c5ccccc5)nc4c3)c3c(N)nccn32)C1 [Linsitinib] (partner 1 µM)
Summary of the method: as §1

Fedratinib + Crizotinib = compound: Cc1cnc(Nc2ccc(OCCN3CCCC3)cc2)nc1Nc1cccc(S(=O)(=O)NC(C)(C)C)c1 [Fedratinib] + C[C@@H](Oc1cc(-c2cnn(C3CCNCC3)c2)cnc1N)c1c(Cl)ccc(F)c1Cl [Crizotinib] (partner 1 µM)
Summary of the method: as §1

Fedratinib + Luminespib = compound: Cc1cnc(Nc2ccc(OCCN3CCCC3)cc2)nc1Nc1cccc(S(=O)(=O)NC(C)(C)C)c1 [Fedratinib] + CCNC(=O)c1noc(-c2cc(C(C)C)c(O)cc2O)c1-c1ccc(CN2CCOCC2)cc1 [Luminespib] (partner 0.01 µM)
Summary of the method: as §1

GW-2580 + Navitoclax = compound: COC1=CC=C(C=C1)COC2=C(C=C(C=C2)CC3=CN=C(N=C3N)N)OC [GW-2580] + CC1(C)CCC(c2ccc(Cl)cc2)=C(CN2CCN(c3ccc(C(=O)NS(=O)(=O)c4ccc(N[C@H](CCN5CCOCC5)CSc5ccccc5)c(S(=O)(=O)C(F)(F)F)c4)cc3)CC2)C1 [Navitoclax] (partner 0.5 µM)
Summary of the method: as §1

Cell Line | relative viability (GW-2580 + Palbociclib; first compound 0.08 µM) | relative viability (GW-2580 + Palbociclib; first compound 0.8 µM) | relative viability (GW-2580 + Palbociclib; first compound 2.53 µM) | relative viability (GW-2580 + Palbociclib; first compound 8 µM) | relative viability (Fedratinib + Linsitinib; first compound 0.1 µM) | relative viability (Fedratinib + Linsitinib; first compound 0.3162 µM) | relative viability (Fedratinib + Linsitinib; first compound 1 µM) | relative viability (Fedratinib + Crizotinib; first compound 0.1 µM) | relative viability (Fedratinib + Crizotinib; first compound 0.3162 µM) | relative viability (Fedratinib + Crizotinib; first compound 1 µM) | relative viability (Fedratinib + Luminespib; first compound 0.1 µM) | relative viability (Fedratinib + Luminespib; first compound 0.3162 µM) | relative viability (Fedratinib + Luminespib; first compound 1 µM) | relative viability (GW-2580 + Navitoclax; first compound 0.08 µM) | relative viability (GW-2580 + Navitoclax; first compound 0.8 µM) | relative viability (GW-2580 + Navitoclax; first compound 2.53 µM) | relative viability (GW-2580 + Navitoclax; first compound 8 µM)
LXF-289 | 0.616 | 0.64 | 0.599 | 0.602 | 0.989 | 0.943 | 0.963 | 0.81 | 0.79 | 0.804 | 0.741 | 0.665 | 0.747 | 1.02 | 0.963 | 0.948 | 0.821
NCI-H23 | 0.529 | 0.549 | 0.469 | 0.545 | 0.583 | 0.618 | 0.431 | 0.305 | 0.475 | 0.41 | 0.193 | 0.212 | 0.204 | 0.77 | 0.75 | 0.774 | 0.87
NCI-H322M | 0.5 | 0.453 | 0.476 | 0.29 | 0.95 | 0.939 | 0.799 | 0.949 | 0.877 | 0.966 | 0.59 | 0.849 | 0.49 | 1.07 | 1.31 | 1.11 | 1.22
NCI-H441 | 0.228 | 0.212 | 0.206 | 0.2 | 0.518 | 0.442 | 0.343 | 0.65 | 0.623 | 0.619 | 0.331 | 0.262 | 0.343 | 1.03 | 0.33 | 0.575 | 0.515
NCI-H460 | 0.147 | 0.339 | 0.146 | 0.248 | 0.806 | 0.773 | 0.52 | 0.47 | 0.767 | 0.812 | 0.0244 | 0.0389 | 0.0213 | 1.46 | 1.37 | 0.941 | 1.15
NCI-H520 | 0.228 | 0.206 | 0.228 | 0.208 | 1.09 | 1.25 | 1.02 | 0.716 | 0.703 | 0.594 | 0.265 | 0.194 | 0.23 | 1.18 | 1.3 | 1.45 | 1.25
NCI-H647 | 0.384 | 0.398 | 0.41 | 0.317 | 1.14 | 1.16 | 1.11 | 1.06 | 1.09 | 0.584 | 0.15 | 0.209 | 0.177 | 1.09 | 1.19 | 1.18 | 1.3
NCI-H727 | 0.576 | 0.625 | 0.606 | 0.54 | 0.2 | 0.213 | 0.335 | 0.791 | 0.688 | 0.661 | 0.269 | 0.301 | 0.375 | 0.454 | 0.538 | 0.402 | 0.384
NCI-H838 | 0.228 | 0.25 | 0.2 | 0.251 | 1.01 | 1.05 | 0.984 | 0.669 | 0.847 | 0.745 | 0.454 | 0.379 | 0.334 | 1.09 | 1.2 | 1.03 | 1.36
NCI-H1355 | 0.407 | 0.439 | 0.337 | 0.322 | 0.684 | 0.822 | 0.796 | 1.06 | 1.04 | 1.07 | 0.59 | 0.702 | 0.696 | 0.984 | 1.08 | 0.827 | 0.944
NCI-H1437 | 0.307 | 0.338 | 0.297 | 0.262 | 1.03 | 0.978 | 0.884 | 0.999 | 0.883 | 0.922 | 1.11 | 1.04 | 1.13 | 1.16 | 1.15 | 0.928 | 0.879
NCI-H1651 | 0.503 | 0.594 | 0.499 | 0.557 | 0.976 | 0.954 | 1.01 | 0.931 | 0.875 | 0.808 | 0.764 | 0.716 | 1.09 | 1.04 | 1.15 | 0.95 | 1.18
NCI-H1666 | 0.647 | 0.65 | 0.649 | 0.64 | 0.726 | 0.875 | 0.869 | 1.03 | 0.994 | 0.843 | 0.92 | 0.977 | 1.01 | 0.946 | 1.1 | 0.856 | 0.69
NCI-H1734 | 0.364 | 0.432 | 0.37 | 0.311 | 0.898 | 0.865 | 0.776 | 0.629 | 0.692 | 0.629 | 0.179 | 0.205 | 0.185 | 1.04 | 0.935 | 0.857 | 0.76
NCI-H1755 | 0.458 | 0.422 | 0.455 | 0.41 | 0.995 | 1 | 0.885 | 0.858 | 0.862 | 0.802 | 0.367 | 0.595 | 0.381 | 1.04 | 1.04 | 0.894 | 0.831
NCI-H1792 | 0.96 | 0.997 | – | 0.678 | 0.611 | 0.547 | 0.542 | 1.26 | 0.972 | 0.854 | 0.231 | 0.419 | 0.362 | 0.534 | 0.816 | 0.26 | 0.668
NCI-H1915 | 0.608 | 0.735 | 0.597 | 0.492 | 1.04 | 1.08 | 1.03 | 0.942 | 0.866 | 0.777 | 0.823 | 0.754 | 0.734 | 0.858 | 0.898 | 0.778 | 0.837
